Laboratory results as given in the supplement of paper PMC5662764.
± gives the standard deviation of the averaged measurements.

How the values were obtained:
Test in all cases: normalised growth rate inhibition (GR value) relative to DMSO control (GR (1 = untreated growth, 0 = cytostasis, <0 = cytotoxic)); higher = less growth inhibition
Conditions in all cases: 72 h
[1] = system: HS578T
Description: (§1)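 Breast cancer cell lines (BT-20, Hs 578T, MCF 10A, MCF7, MDA-MB-231, SK-BR-3) were plated in 384-well plates and treated 24 h later with drugs at six concentrations (0.04-10 µM). Viable cells were counted by Hoechst/dead-cell-stain imaging at 0 and 72 h. Counts were normalised to DMSO controls on the same plate to give the relative cell count and the growth-rate inhibition (GR) value; technical plate triplicates were averaged for each biological replicate.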

[2] = system: MCF7
Description: as §1

[3] = system: BT20
Description: as §1

[4] = system: MCF10A
Description: as §1

[5] = system: SKBR3
Description: as §1

[6] = system: MDAMB231
Description: as §1

Row | Structure (SMILES) | normalised growth rate inhibition ([1]; 0.04 µM) | normalised growth rate inhibition ([1]; 0.12 µM) | normalised growth rate inhibition ([1]; 0.37 µM) | normalised growth rate inhibition ([1]; 1.11 µM) | normalised growth rate inhibition ([1]; 3.33 µM) | normalised growth rate inhibition ([1]; 10 µM) | normalised growth rate inhibition ([2]; 0.04 µM) | normalised growth rate inhibition ([2]; 0.12 µM) | normalised growth rate inhibition ([2]; 0.37 µM) | normalised growth rate inhibition ([2]; 1.11 µM) | normalised growth rate inhibition ([2]; 3.33 µM) | normalised growth rate inhibition ([2]; 10 µM) | normalised growth rate inhibition ([3]; 0.04 µM) | normalised growth rate inhibition ([3]; 0.12 µM) | normalised growth rate inhibition ([3]; 0.37 µM) | normalised growth rate inhibition ([3]; 1.11 µM) | normalised growth rate inhibition ([3]; 3.33 µM) | normalised growth rate inhibition ([3]; 10 µM) | normalised growth rate inhibition ([4]; 0.04 µM) | normalised growth rate inhibition ([4]; 0.12 µM) | normalised growth rate inhibition ([4]; 0.37 µM) | normalised growth rate inhibition ([4]; 1.11 µM) | normalised growth rate inhibition ([4]; 3.33 µM) | normalised growth rate inhibition ([4]; 10 µM) | normalised growth rate inhibition ([5]; 0.04 µM) | normalised growth rate inhibition ([5]; 0.12 µM) | normalised growth rate inhibition ([5]; 0.37 µM) | normalised growth rate inhibition ([5]; 1.11 µM) | normalised growth rate inhibition ([5]; 3.33 µM) | normalised growth rate inhibition ([5]; 10 µM) | normalised growth rate inhibition ([6]; 0.04 µM) | normalised growth rate inhibition ([6]; 0.12 µM) | normalised growth rate inhibition ([6]; 0.37 µM) | normalised growth rate inhibition ([6]; 1.11 µM) | normalised growth rate inhibition ([6]; 3.33 µM) | normalised growth rate inhibition ([6]; 10 µM)
1 | COc1cc(OC)cc(-c2ccc3ncc4ccc(=O)n(-c5ccc(N6CCNCC6)c(C(F)(F)F)c5)c4c3c2)c1 [JW-7-24-1] | 0.929 ± 0.017 | 0.89 ± 0.039 | 0.765 ± 0.034 | 0.581 ± 0.029 | 0.384 ± 0.037 | -0.198 ± 0.14 | 0.607 ± 0.09 | 0.551 ± 0.07 | 0.373 ± 0.12 | 0.236 ± 0.08 | 0.139 ± 0.078 | -0.135 ± 0.0036 | 0.797 ± 0.057 | 0.876 ± 0.078 | 0.822 ± 0.08 | 0.755 ± 0.18 | 0.61 ± 0.25 | -0.0316 ± 0.17 | 0.986 ± 0.034 | 0.986 ± 0.044 | 0.952 ± 0.069 | 0.911 ± 0.11 | 0.84 ± 0.15 | 0.176 ± 0.17 | 0.615 ± 0.034 | 0.695 ± 0.042 | 0.591 ± 0.047 | 0.457 ± 0.038 | 0.273 ± 0.041 | -0.224 ± 0.14 | 0.823 ± 0.12 | 0.859 ± 0.088 | 0.754 ± 0.09 | 0.624 ± 0.12 | 0.543 ± 0.11 | -0.122 ± 0.17
2 | Nc1cc(C(F)(F)F)c(-c2cc(N3CCOCC3)nc(N3CCOCC3)n2)cn1 [buparlisib] | 0.955 ± 0.025 | 0.845 ± 0.028 | 0.679 ± 0.039 | 0.142 ± 0.16 | -0.17 ± 0.099 | -0.231 ± 0.091 | 0.759 ± 0.25 | 0.475 ± 0.18 | 0.148 ± 0.069 | -0.113 ± 0.032 | -0.188 ± 0.0036 | -0.189 ± 0.021 | 1.01 ± 0.029 | 0.868 ± 0.1 | 0.501 ± 0.11 | 0.0131 ± 0.038 | -0.261 ± 0.11 | -0.346 ± 0.12 | 1 ± 0.012 | 0.956 ± 0.044 | 0.857 ± 0.11 | 0.487 ± 0.23 | 0.0221 ± 0.089 | -0.181 ± 0.12 | 0.917 ± 0.09 | 0.651 ± 0.1 | 0.145 ± 0.056 | -0.203 ± 0.16 | -0.281 ± 0.14 | -0.332 ± 0.13 | 1.05 ± 0.063 | 0.978 ± 0.027 | 0.844 ± 0.04 | 0.487 ± 0.062 | 0.0994 ± 0.052 | -0.255 ± 0.12
3 | CCN(CC)CCCCNc1ncc2cc(-c3cc(OC)cc(OC)c3)c(NC(=O)NC(C)(C)C)nc2n1 | 0.852 ± 0.074 | 0.824 ± 0.083 | 0.835 ± 0.074 | 0.846 ± 0.061 | 0.809 ± 0.071 | 0.164 ± 0.14 | 1.1 ± 0.066 | 1.08 ± 0.029 | 1.04 ± 0.078 | 1.1 ± 0.066 | 1.1 ± 0.12 | 0.572 ± 0.16 | 1.1 ± 0.039 | 1.08 ± 0.058 | 1.09 ± 0.056 | 1.14 ± 0.066 | 1.16 ± 0.049 | 0.853 ± 0.18 | 1.022 ± 0.0032 | 1.005 ± 0.0025 | 0.9981 ± 0.0038 | 0.9929 ± 0.0079 | 0.984 ± 0.016 | 0.644 ± 0.15 | 1.14 ± 0.12 | 1.12 ± 0.13 | 1.08 ± 0.085 | 1.13 ± 0.12 | 1.12 ± 0.11 | 0.209 ± 0.2 | 1.08 ± 0.053 | 1.07 ± 0.032 | 1.08 ± 0.079 | 1.07 ± 0.054 | 1.04 ± 0.018 | 0.0514 ± 0.23
